Where a name gives a salt, the structure may show the parent alone.
Target: ATM (Homo sapiens (Human), UniProt Q13315)
Assay: ATM in Cell Western Assay (pKAP1 in etoposide-treated MCF-7 cells)
Format: cell-based
Conditions: MCF-7 cells, etoposide 100 μM, 1 hr, pKAP1 readout
Experimental: Assay of Compounds ATM and DNA-PK Inhibition
ATM in Cell Western Assay:
Next day, add corresponding concentration of compounds using pin tool (Echo 550), the final top concentration is 1 μM, 3-fold series dilution, total 10 doses. Then add etoposide (Sigma, #E1383) to a final concentration of 100 μM. Incubate at 37° C. for 1 hr. Fix cells by adding 25 μL of fixing solution (8% paraformaldehyde) for 20 minutes at ambient temperature. Permeabilize cells for 5 washes with 1×PBS (phosphate buffered saline) containing 0.1% Triton X-100; each wash is for 5 minutes. […] The next day, wash the plate 5 times with 1×PBST (1×PBS containing 0.1% Tween-20). […] Wash the cells for 5 times with 1×PBST (1×PBS containing 0.1% Tween-20) at ambient temperature, using gentle shaking in the dark. After the last wash
remove wash solution, turn plate upside down onto a thin paper towel and centrifuge at 1000 rpm for 1 min to absorb all wash buffer. Clean the bottom of plate with moist lint free paper. Scan plate immediately using ODYSSEY CLx (LI-COR) for the best results.

Chain of ATM (Q13315 whole entry): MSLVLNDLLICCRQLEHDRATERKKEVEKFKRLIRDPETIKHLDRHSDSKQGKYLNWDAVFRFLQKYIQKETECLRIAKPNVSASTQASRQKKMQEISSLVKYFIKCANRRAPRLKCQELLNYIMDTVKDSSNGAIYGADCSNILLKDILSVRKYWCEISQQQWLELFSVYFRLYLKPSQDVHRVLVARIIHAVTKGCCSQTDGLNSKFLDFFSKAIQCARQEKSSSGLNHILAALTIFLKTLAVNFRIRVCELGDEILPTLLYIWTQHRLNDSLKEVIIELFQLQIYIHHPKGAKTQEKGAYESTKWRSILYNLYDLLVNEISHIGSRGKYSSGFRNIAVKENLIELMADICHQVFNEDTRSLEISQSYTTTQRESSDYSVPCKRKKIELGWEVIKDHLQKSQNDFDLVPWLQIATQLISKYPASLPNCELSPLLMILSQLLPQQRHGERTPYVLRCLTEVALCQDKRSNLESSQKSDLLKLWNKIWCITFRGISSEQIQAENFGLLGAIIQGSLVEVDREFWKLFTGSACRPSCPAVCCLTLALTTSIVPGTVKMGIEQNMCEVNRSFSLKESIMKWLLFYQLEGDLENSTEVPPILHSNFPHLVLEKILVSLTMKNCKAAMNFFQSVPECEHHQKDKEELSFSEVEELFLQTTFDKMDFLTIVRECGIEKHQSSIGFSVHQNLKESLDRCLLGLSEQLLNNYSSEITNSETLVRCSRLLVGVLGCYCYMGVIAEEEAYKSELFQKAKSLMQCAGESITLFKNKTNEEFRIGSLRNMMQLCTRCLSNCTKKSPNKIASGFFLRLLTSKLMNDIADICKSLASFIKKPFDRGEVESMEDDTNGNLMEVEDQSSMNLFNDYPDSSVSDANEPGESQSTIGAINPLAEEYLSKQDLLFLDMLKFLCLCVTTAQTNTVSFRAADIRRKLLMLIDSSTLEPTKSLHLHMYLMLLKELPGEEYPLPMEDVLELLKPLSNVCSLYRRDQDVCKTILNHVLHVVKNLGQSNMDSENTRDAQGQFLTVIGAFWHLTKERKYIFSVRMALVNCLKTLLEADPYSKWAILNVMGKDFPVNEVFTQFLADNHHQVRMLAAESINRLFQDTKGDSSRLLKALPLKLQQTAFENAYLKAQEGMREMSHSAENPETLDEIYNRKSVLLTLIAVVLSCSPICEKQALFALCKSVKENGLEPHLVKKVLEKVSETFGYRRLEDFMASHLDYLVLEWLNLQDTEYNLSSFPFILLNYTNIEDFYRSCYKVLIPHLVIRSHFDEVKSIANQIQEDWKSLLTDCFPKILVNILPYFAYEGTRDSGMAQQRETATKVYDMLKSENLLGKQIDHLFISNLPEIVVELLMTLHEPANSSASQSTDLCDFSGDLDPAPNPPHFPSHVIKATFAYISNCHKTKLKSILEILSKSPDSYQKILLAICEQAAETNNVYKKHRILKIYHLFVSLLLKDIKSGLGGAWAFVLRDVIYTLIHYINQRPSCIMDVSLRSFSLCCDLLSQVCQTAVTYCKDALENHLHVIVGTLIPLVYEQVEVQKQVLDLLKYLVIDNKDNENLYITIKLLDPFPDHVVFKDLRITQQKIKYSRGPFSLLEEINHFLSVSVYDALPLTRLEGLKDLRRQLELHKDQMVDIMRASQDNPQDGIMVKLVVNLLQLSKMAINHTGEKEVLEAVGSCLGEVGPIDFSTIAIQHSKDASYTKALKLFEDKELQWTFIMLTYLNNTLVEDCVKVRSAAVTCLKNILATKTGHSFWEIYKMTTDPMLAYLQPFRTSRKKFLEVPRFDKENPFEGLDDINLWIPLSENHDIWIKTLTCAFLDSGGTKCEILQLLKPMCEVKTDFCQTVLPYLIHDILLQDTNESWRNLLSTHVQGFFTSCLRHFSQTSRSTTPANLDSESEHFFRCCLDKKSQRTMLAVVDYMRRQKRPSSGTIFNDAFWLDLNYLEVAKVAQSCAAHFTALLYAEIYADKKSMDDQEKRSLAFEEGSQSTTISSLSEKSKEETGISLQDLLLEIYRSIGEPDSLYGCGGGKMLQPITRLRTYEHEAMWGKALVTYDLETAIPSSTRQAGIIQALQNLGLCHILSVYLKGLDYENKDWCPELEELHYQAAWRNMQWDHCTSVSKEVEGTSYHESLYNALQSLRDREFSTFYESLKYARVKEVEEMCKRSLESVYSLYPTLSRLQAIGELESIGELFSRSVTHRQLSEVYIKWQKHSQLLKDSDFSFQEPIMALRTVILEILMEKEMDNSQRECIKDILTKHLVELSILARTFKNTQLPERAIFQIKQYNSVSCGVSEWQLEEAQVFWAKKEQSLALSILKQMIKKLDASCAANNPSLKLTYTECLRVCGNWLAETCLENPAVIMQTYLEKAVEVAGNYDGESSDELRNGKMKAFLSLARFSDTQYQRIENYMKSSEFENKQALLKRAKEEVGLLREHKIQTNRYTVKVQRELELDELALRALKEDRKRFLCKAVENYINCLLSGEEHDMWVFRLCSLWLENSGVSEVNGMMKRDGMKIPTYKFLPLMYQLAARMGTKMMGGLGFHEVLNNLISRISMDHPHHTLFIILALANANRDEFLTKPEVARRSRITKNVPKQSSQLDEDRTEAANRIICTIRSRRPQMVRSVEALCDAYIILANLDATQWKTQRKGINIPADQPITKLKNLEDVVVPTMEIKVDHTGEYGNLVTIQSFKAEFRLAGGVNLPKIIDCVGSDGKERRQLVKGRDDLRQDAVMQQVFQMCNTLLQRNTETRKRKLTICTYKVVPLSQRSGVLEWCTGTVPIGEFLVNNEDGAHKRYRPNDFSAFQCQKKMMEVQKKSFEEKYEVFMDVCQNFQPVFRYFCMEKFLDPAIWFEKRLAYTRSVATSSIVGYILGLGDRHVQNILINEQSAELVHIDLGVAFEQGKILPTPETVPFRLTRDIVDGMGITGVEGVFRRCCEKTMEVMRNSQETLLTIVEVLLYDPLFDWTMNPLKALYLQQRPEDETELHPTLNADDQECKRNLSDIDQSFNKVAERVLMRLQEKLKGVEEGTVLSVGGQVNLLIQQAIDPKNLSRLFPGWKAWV

Row | Compound | IC50 [nM]
1 | COc1ncc(-c2ccc3ncc4c(c3c2)C2(CC2)C(=O)N4CCC#N)cc1NS(=O)(=O)c1ccccc1 [Example 27, N-(5-(3′-(2-Cyanoethyl)-2′-oxo-2′,3′-dihydrospiro[cyclopropane-1,1′-pyrrolo[2,3-c]quinolin]-8′-yl)-2-methoxypyridin-3-yl)benzenesulfonamide] | > 100
2 | CN1C(=O)C(C)(c2ccncc2)c2c1cnc1ccc(-c3cnc(Cl)c(NS(=O)(=O)c4ccccc4)c3)cc21 (centres unmarked) [Example 23, N-(2-Chloro-5-(1,3-dimethyl-2-oxo-1-(pyridin-4-yl)-2′,3′-dihydro-1H-pyrrolo[2,3-c]quinolin-8-yl)pyridin-3-yl)benzenesulfonamide] | > 100
3 | [2H]C([2H])(COc1ncc(-c2ccc3ncc4c(c3c2)C2(CCC2)C(=O)N4C)cc1NS(=O)(=O)c1ccc(C)nc1)CN1CCCCC1 [Example 219, 6-Methyl-N-(5-(3′-methyl-2′-oxo-2′,3′-dihydrospiro[cyclobulane-1,1′-pyrrolo[2,3-c]quinolin]-8′-yl)-2-(3-(piperidin-1-yl)propoxy-2,2-d2)pyridin-3-yl)pyridine-3-sulfonamide] | > 100
4 | CN1C(=O)C2(CCC2)c2c1cnc1cc(F)c(-c3cnc(N4CC(N(C)C)C4)c(NS(=O)(=O)c4ccccc4F)c3)cc21 [Example 322, N-(2-(3-(Dimethylamino)azetidin-1-yl)-5-(7′-fluoro-3′-methyl-2′-oxo-2′,3′-dihydrospiro[cyclobulane-1,1′-pyrrolo[2,3-c]quinolin]-8′-yl)pyridin-3-yl)-2-fluorobenzenesulfonamide hydrochloride] | 1 to 100
5 | CCCCN(C)S(=O)(=O)Nc1cc(-c2ccc3ncc4c(c3c2)C2(CCC2)C(=O)N4C)cnc1OCCCN(C)C [Example 176] | 1 to 100
6 | COCCN(C)C1CN(c2ncc(-c3cc4c5c(cnc4cc3F)N(C)C(=O)C53CCC3)cc2NS(C)(=O)=O)C1 [Example 314, N-(5-(7′-Fluoro-3′-methyl-2′-oxo-2′,3′-dihydrospiro[cyclobutane-1,1′-pyrrolo[2,3-c]quinolin]-8′-yl)-2-(3((2-methoxyethyl)(methyl)amino)azetidin-1-yl)pyridin-3-yl)methanesulfonamide hydrochloride] | 1 to 100
7 | CCN1C(=O)C2(CCC2)c2c1cnc1ccc(-c3cnc(OCCNC)c(NS(C)(=O)=O)c3)cc21 [Example 308, N-(5-(3′-Ethyl-2′-oxo-2′,3′-dihydrospiro[cyclobutane-1,1′-pyrrolo[2,3-c]quinolin]-8′-yl)-2-(2-(methylamino)ethoxy)pyridin-3-yl) methanesulfonamide hydrochloride] | 1 to 100
8 | CN1C(=O)C2(CC2)c2c1cnc1ccc(-c3cnc(OCCCN4CCCC4)c(NS(=O)(=O)C4CC4)c3)cc21 [Example 60, N-(5-(3-Methyl-2′-oxo-2′,3′-dihydrospiro [cyclopropane-1,1′-pyrrolo[2,3-c]quinolin]-8′-yl)-2-(3-(pyrrolidin-1-yl)propoxy)pyridin-3-yl) cyclopropanesulfonamide] | 1 to 100

Other lines, results leading:

Row | IC50 [nM] | Compound
9 | > 100 | CN1C(=O)C2(CCC2)c2c1cnc1ccc(-c3cnc(OCCCN4CC(F)(F)C4)c(NS(C)(=O)=O)c3)cc21 [Example 307, N-(2-(3-(3,3-Difluoroazetidin-1-yl)propoxy)-5-(3′-methyl-2′-oxo-2′,3′-dihydrospiro[cyclobutane-1,1′-pyrrolo[2,3-c]quinolin]-8′-yl)pyridin-3-yl) methanesulfonamide formate]
10 | 1 to 100 | CN(C)CCCOc1ncc(-c2ccc3ncc4c(c3c2)C2(CCC2)C(=O)N4C)cc1NS(=O)(=O)c1cc[nH]c(=O)c1 [Example 161, N-(2-(3-(Dimethylamino)propoxy)-5-(3′-methyl-2′-oxo-2′,3′-dihydrospiro[cyclobulane-1,1′-pyrrolo[2,3-c]quinolin]-8′-yl)pyridin-3-yl)-2-oxo-1,2-dihydropyridine-4-sulfonamide]
11 | 1 to 100 | CNS(=O)(=O)c1cc(-c2ccc3ncc4c(c3c2)C2(CCC2)C(=O)N4C)cnc1OCCCN(C)C [Example 267, 2-(3-(Dimethylamino)propoxy)-N-methyl-5-(3′-methyl-2′-oxo-2′,3′-dihydrospiro[cyclobutane-1,1′-pyrrolo[2,3-c]quinolin]-8′-yl) pyridine-3-sulfonamide]

Same assay, conditions: pKAP1 in etoposide-treated MCF-7 cells

Row | Compound | IC50 [nM]
12 | CC(C)CCN1CC2(C1)C(=O)N(C)c1cnc3cc(F)c(-c4cnc(OCCNC(C)C)c(NS(C)(=O)=O)c4)cc3c12 [Example 492, N-(5-(7′-Fluoro-1-isopentyl-3′-methyl-2′-oxo-2′,3′-dihydrospiro[azetidine-3,1′-pyrrolo[2,3-c]quinolin]-8′-yl)-2-(2-(isopropylamino)ethoxy)pyridin-3-yl)methanesulfonamide] | > 100
13 | CN1C(=O)C2(CCC2)c2c1cnc1ccc(-c3cnc(N4CC5CN(C(=O)OC(C)(C)C)CC5C4)c(NS(C)(=O)=O)c3)cc21 (centres unmarked) [Example 348, tert-Butyl 5-(5-(3′-methyl-2′-oxo-2′,3′-dihydrospiro [cyclobutane-1,1′-pyrrolo[2,3-c]quinolin]-8′-yl)-3-(methylsulfonamido)pyridin-2-yl) hexahydropyrrolo [3,4-c] pyrrole-2(1H)-carboxylate] | > 100
14 | CC(C)NCCOc1ncc(-c2cc3c(cc2F)ncc2c3[C@]3(C[C@@H](c4ccc(=O)[nH]c4)C3)C(=O)N2C)cc1NS(C)(=O)=O [Example 443, trans-N-(5-(7′-Fluoro-3′-methyl-2′-oxo-3-(6-oxo-1,6-dihydropyridin-3-yl)-2′,3′-dihydrospiro[cyclobutane-1,1′-pyrrolo[2,3-c]quinolin]-8′-yl)-2-(2-(isopropylamino)ethoxy)pyridin-3-yl)methanesulfonamide] | > 100
15 | CC(C)NCCOc1ncc(-c2cc3c(cc2F)ncc2c3[C@]3(C[C@H](c4cc[nH]c(=O)c4)C3)C(=O)N2C)cc1NS(C)(=O)=O [Example 444, cis-N-(5-(7′-fluoro-3′-methyl-2′-oxo-3-(2-oxo-1,2-dihydropyridin-4-yl)-2,3′-dihydrospiro[cyclobulane-1,1′-pyrrolo[2,3-c]quinolin]-8′-yl)-2-(2-(isopropylamino)ethoxy)pyridin-3-yl)methanesulfonamide] | > 100
16 | CN1C(=O)C2(CCC2)c2c1cnc1ccc(-c3cnc(N4CC5CNCC5C4)c(NS(C)(=O)=O)c3)cc21 (centres unmarked) [Example 349, N-(2-(Hexahydropyrrolo[3,4-c]pyrrol-2(1H)-yl)-5-(3′-methyl-2′-oxo-2′,3′-dihydrospiro [cyclobutane-1,1′-pyrrolo[2,3-c]quinolin]-8′-yl)pyridin-3-yl) methanesulfonamide formate] | 1 to 100

Next, values leading:

Row | IC50 [nM] | Compound
17 | 1 to 100 | CC(C)NCCOc1ncc(-c2cc3c(cc2F)ncc2c3[C@]3(C[C@@H](C(C)(C)O)C3)C(=O)N2C)cc1NS(C)(=O)=O [Example 457, trans-N-(5-(7′-Fluoro-3-(2-bydroxypropan-2-yl)-3′-methyl-2′-oxo-2′,3′-dihydrospiro[cyclobutane-1,1′-pyrrolo[2,3-c]quinolin]-8′-yl)-2-(2-(isopropylamino)ethoxy)pyridin-3-yl)methanesulfonamide]
18 | > 100 | CN(C)CCCOc1c(NS(C)(=O)=O)cc(-c2ccc3ncc4c(c3c2)C2(CCC2)C(=O)N4C)cc1C(=O)N(C)C [Example 564, 2-(3-(Dimethylamino)propoxy)-N,N-dimethyl-5-(3′-methyl-2′-oxo-2′,3′-dihydrospiro[cyclobutane-1,1′-pyrrolo[2,3-c]quinolin]-8′-yl)-3-(methylsulfonamido)benzamide]
19 | > 100 | CC(C)NCCOc1ncc(-c2cc3c4c(cnc3cc2F)N(C)C(=O)C42CN(C[C@H](O)CO)C2)cc1NS(C)(=O)=O [Example 510, (S)-N-(5-(1-(2,3-Dihydroxypropyl)-7′-fluoro-3′-methyl-2′-oxo-2′,3′-dihydrospiro[azetidine-3,1′-pyrrolo[2,3-c]quinolin]-8′-yl)-2-(2-(isopropylamino)ethoxy)pyridin-3-yl)methanesulfonamide]
20 | 1 to 100 | CC(C)NCCOc1ncc(-c2cc3c(cc2F)ncc2c3[C@]3(C[C@@H](C)C3)C(=O)N2C)cc1NS(C)(=O)=O [Example 447, trans-N-(5-(7′-Fluoro-3,3′-dimethyl-2′-oxo-2′,3′-dihydrospiro[cyclobutane-1,1′-pyrrolo[2,3-c]quinolin]-8′-yl)-2-(2-(isopropylamino)ethoxy)pyridin-3-yl)methanesulfonamide]
21 | 1 to 100 | CC(C)NCCOc1ncc(-c2cc3c4c(cnc3cc2F)N(C)C(=O)C42CN(C(=O)OC(C)C)C2)cc1NS(C)(=O)=O [Example 514, Isopropyl 7′-fluoro-8′-(6-(2-(isopropylamino)ethoxy)-5-(methylsulfonamido)pyridin-3-yl)-3′-methyl-2′-oxo-2′,3′-dihydrospiro [azetidine-3,1′-pyrrolo[2,3-c]quinoline]-1-carboxylate]
22 | 1 to 100 | COc1cccc(N2CC3(C2)C(=O)N(C)c2cnc4cc(F)c(-c5cnc(OCCNC(C)C)c(NS(C)(=O)=O)c5)cc4c23)c1 [Example 534, N-(5-(7′-Fluoro-1-(3-methoxyphenyl)-3′-methyl-2′-oxo-2′,3′-dihydrospiro [azetidine-3,1′-pyrrolo[2,3-c]quinolin]-8′-yl)-2-(2-(isopropylamino)ethoxy)pyridin-3-yl)methanesulfonamide]
23 | > 100 | CC(C)NCCOc1ncc(-c2cc3c4c(cnc3cc2F)N(C)C(=O)C42CN(c3nnnn3C)C2)cc1NS(C)(=O)=O [Example 553, N-(5-(7′-Fluoro-3′-methyl-1-(1-methyl-1H-tetrazol-5-yl)-2′-oxo-2′,3′-dihydrospiro[azetidine-3,1′-pyrrolo[2,3-c]quinolin]-8′-yl)-2-(2-(isopropylamino)ethoxy)pyridin-3-yl)methanesulfonamide]

Reference: patent US12187742B2 (XRAD Therapeutics, Inc., priority 2018, dated 2025)
